US6660473B1, “C-terminal protein tagging” (Phylos, Inc., priority 1999, dated 2003)

How the values were obtained:
[1] = target: ribosomal peptidyl transferase; details: ribosomal peptidyl transferase site; cited from earlier work
[2] = test system: stalled translation reaction (myc-dA30 in rabbit reticulocyte lysate); details: 130 μM added to stalled translation reaction; 500 mM KCl, 20 mM MgCl2; anti-myc immunoprecipitation
Source text: Myc dsDNA was generated by standard methods of PCR to include a 5′-T7 promoter for in vitro synthesis of mRNA using T7 polymerase and a deletion mutant of the tobacco mosaic virus 5′-UTR to induce efficient translation initiation in rabbit reticulocyte lysates. The 3′-end of the myc construct was devoid of stop codons to prevent protein release from the ribosome.
Transcription of the myc PCR product (using the MegaSHORTscript kit, Ambion) gave large quantities of RNA using T7 RNA polymerase. Purified RNA was then subjected to a splinted ligation reaction with a 5′-phosphorylated dA30 oligonucleotide catalyzed by T4 DNA ligase. The 3′-dA30 region facilitates ribosomal stalling and thereby increases the proportion of RNA-ribosome-protein complexes available for labeling. The purified myc-dA30 construct was then translated in rabbit reticulocyte lysate (Ambion) with ^35S-methionine and stalled under high salt conditions (500 mM KCl, 20 mM MgCl2).
Biotin-TEG-dCdCdA was used as a control. The radiolabled myc peptide was then isolated by immunoprecipitation with an anti-myc monoclonal antibody (Chemicon) and protein A sepharose (Sigma). Control and C-terminally-labeled peptide were then applied to a microscope slide prefunctionalized with NeutrAvidin™ (Pierce).

[3] = test system: stalled translation reaction (10Fn3-dA30 in rabbit reticulocyte lysate); details: labeling as in the myc experiment; Co2+-NTA purification

## COc1ccc(C[C@H](N)C(=O)N[C@H]2[C@@H](O)[C@H](n3cnc4c(N(C)C)ncnc43)O[C@@H]2CO)cc1 [puromycin]
[1]
  Kd of unmodified puromycin: in the micromolar range

## Biotin-TEG-dCdCdA
[2]
  immobilization of 35S-labeled myc epitope on NeutrAvidin slide (phosphorimaging): no significant label

## Biotin-TEG-dCdC-puromycin
[2]
  immobilization of 35S-labeled myc epitope on NeutrAvidin slide (phosphorimaging): biotin-dependent immobilization of myc epitope to the chip surface
[3]
  immobilization of radiolabeled 10Fn3 on NeutrAvidin-spotted chip (phosphorimaging): presence of radiolabeled ^10Fn3
